Assays:
Assay in all cases: relative viability (nuclei count vs DMSO), 5 days (fraction); higher = more cells survive
[1] = test system: NCI-H441
Summary of the method: (§1)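 Cells from lung cancer lines were seeded into 1536-well plates and, one day later, dosed by pin tool. Treatments were either a single drug or a fixed dose of an anchor drug with five library-drug doses (not always all listed) in √10 steps. After 5 days, nuclei were stained in a one-step fixation (final 0.05% Triton X-100, 1% formaldehyde, 1 ug/ml Hoechst) and counted on 4× images, and relative viability is the treated-to-vehicle nuclei ratio, as the median of duplicate plates.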

[2] = test system: SW 900
Summary of the method: as §1

[3] = test system: LCLC-103H
Summary of the method: as §1

[4] = test system: NCI-H460
Summary of the method: as §1

[5] = test system: NCI-H1651
Summary of the method: as §1

[6] = test system: LXF-289
Summary of the method: as §1

[7] = test system: RERF-LC-KJ
Summary of the method: as §1

[8] = test system: NCI-H1355
Summary of the method: as §1

[9] = test system: NCI-H727
Summary of the method: as §1

[10] = test system: NCI-H596
Summary of the method: as §1

[11] = test system: NCI-H3122
Summary of the method: as §1

[12] = test system: NCI-H1792
Summary of the method: as §1

[13] = test system: NCI-H1915
Summary of the method: as §1

[14] = test system: PC-14
Summary of the method: as §1

[15] = test system: NCI-H2347
Summary of the method: as §1

[16] = test system: NCI-H1755
Summary of the method: as §1

[17] = test system: NCI-H322M
Summary of the method: as §1

[18] = test system: NCI-H522
Summary of the method: as §1

Work on `O=c1cc(N2CCOCC2)oc2c(-c3cccc4c3sc3ccccc34)cccc12` + NC(=O)Nc1cc(-c2cccc(F)c2)sc1C(=O)N[C@H]1CCCNC1 [AZD7762] (partner 0.2 µM) yielded a relative viability ([1]; first compound 0.01 µM) of 1.06, a relative viability ([1]; first compound 0.03162 µM) of 1.03 and a relative viability ([1]; first compound 0.1 µM) of 1.09. For the same molecule, the relative viability ([1]; first compound 0.3162 µM) was 1.2, the relative viability ([1]; first compound 1 µM) was 1.01 and the relative viability ([2]; first compound 0.03162 µM) was 0.748. The relative viability ([2]; first compound 0.1 µM) was 0.378, the relative viability ([2]; first compound 0.3162 µM) was 0.702 and the relative viability ([2]; first compound 1 µM) was 0.497. It also gave a relative viability ([3]; first compound 0.01 µM) of 0.799, a relative viability ([3]; first compound 0.03162 µM) of 0.777 and a relative viability ([3]; first compound 0.1 µM) of 0.804. For the same molecule, the relative viability ([3]; first compound 0.3162 µM) was 0.815, the relative viability ([3]; first compound 1 µM) was 0.688 and the relative viability ([4]; first compound 0.01 µM) was 0.518. The relative viability ([4]; first compound 0.03162 µM) was 0.622, the relative viability ([4]; first compound 0.1 µM) was 0.451 and the relative viability ([4]; first compound 0.3162 µM) was 0.589. For the same molecule, the relative viability ([4]; first compound 1 µM) was 0.636, the relative viability ([5]; first compound 0.01 µM) was 0.494 and the relative viability ([5]; first compound 0.03162 µM) was 0.504. It also gave a relative viability ([5]; first compound 0.1 µM) of 0.454, a relative viability ([5]; first compound 0.3162 µM) of 0.44 and a relative viability ([5]; first compound 1 µM) of 0.384. For the same molecule, the relative viability ([6]; first compound 0.01 µM) was 1.11, the relative viability ([6]; first compound 0.03162 µM) was 1.08 and the relative viability ([6]; first compound 0.1 µM) was 0.75. It also gave a relative viability ([6]; first compound 0.3162 µM) of 1.2, a relative viability ([6]; first compound 1 µM) of 1.21 and a relative viability ([7]; first compound 0.01 µM) of 0.595. It also gave a relative viability ([7]; first compound 0.03162 µM) of 0.951, a relative viability ([7]; first compound 0.1 µM) of 1.18 and a relative viability ([7]; first compound 0.3162 µM) of 0.994. It also gave a relative viability ([7]; first compound 1 µM) of 1.03, a relative viability ([8]; first compound 0.01 µM) of 0.726 and a relative viability ([8]; first compound 0.03162 µM) of 0.676. The relative viability ([8]; first compound 0.1 µM) was 0.255, the relative viability ([8]; first compound 0.3162 µM) was 0.903 and the relative viability ([8]; first compound 1 µM) was 0.72. The relative viability ([9]; first compound 0.01 µM) was 0.583, the relative viability ([9]; first compound 0.03162 µM) was 0.486 and the relative viability ([9]; first compound 0.1 µM) was 0.423. The relative viability ([9]; first compound 0.3162 µM) was 0.596, the relative viability ([9]; first compound 1 µM) was 0.575 and the relative viability ([10]; first compound 0.01 µM) was 1.19. For the same molecule, the relative viability ([10]; first compound 0.03162 µM) was 1.2, the relative viability ([10]; first compound 0.1 µM) was 0.75 and the relative viability ([10]; first compound 0.3162 µM) was 1.18. For the same molecule, the relative viability ([10]; first compound 1 µM) was 1.08, the relative viability ([11]; first compound 0.01 µM) was 1.01 and the relative viability ([11]; first compound 0.03162 µM) was 0.976. The relative viability ([11]; first compound 0.1 µM) was 0.731, the relative viability ([11]; first compound 0.3162 µM) was 0.99 and the relative viability ([11]; first compound 1 µM) was 0.973. It also gave a relative viability ([12]; first compound 0.01 µM) of 0.75, a relative viability ([12]; first compound 0.03162 µM) of 0.682 and a relative viability ([12]; first compound 0.3162 µM) of 0.673. For the same molecule, the relative viability ([12]; first compound 1 µM) was 0.733, the relative viability ([13]; first compound 0.01 µM) was 0.763 and the relative viability ([13]; first compound 0.03162 µM) was 0.725. The relative viability ([13]; first compound 0.1 µM) was 0.731, the relative viability ([13]; first compound 0.3162 µM) was 0.658 and the relative viability ([13]; first compound 1 µM) was 0.675. For the same molecule, the relative viability ([14]; first compound 0.01 µM) was 0.306, the relative viability ([14]; first compound 0.03162 µM) was 0.322 and the relative viability ([14]; first compound 0.1 µM) was 0.116. For the same molecule, the relative viability ([14]; first compound 0.3162 µM) was 0.516, the relative viability ([14]; first compound 1 µM) was 0.27 and the relative viability ([15]; first compound 0.01 µM) was 0.843. The relative viability ([15]; first compound 0.03162 µM) was 0.791, the relative viability ([15]; first compound 0.1 µM) was 0.601 and the relative viability ([15]; first compound 0.3162 µM) was 0.714. The relative viability ([15]; first compound 1 µM) was 0.601, the relative viability ([16]; first compound 0.01 µM) was 0.473 and the relative viability ([16]; first compound 0.03162 µM) was 0.417. The relative viability ([16]; first compound 0.1 µM) was 0.427, the relative viability ([16]; first compound 0.3162 µM) was 0.434 and the relative viability ([16]; first compound 1 µM) was 0.487. The relative viability ([17]; first compound 0.01 µM) was 0.578, the relative viability ([17]; first compound 0.03162 µM) was 0.589 and the relative viability ([17]; first compound 0.3162 µM) was 0.595. It also gave a relative viability ([17]; first compound 1 µM) of 0.581, a relative viability ([18]; first compound 0.01 µM) of 0.737 and a relative viability ([18]; first compound 0.03162 µM) of 0.894. The relative viability ([18]; first compound 0.1 µM) was 0.504, the relative viability ([18]; first compound 0.3162 µM) was 0.967 and the relative viability ([18]; first compound 1 µM) was 0.775.
